The test system of data set [1] is Plasmodium falciparum. Description: Antiplasmodial activity against Plasmodium falciparum NF54 by SYBR Green-based method. The data set is classed as functional, organism-based.
In data set [2] the test system is Plasmodium falciparum. Briefly: Antiplasmodial activity against multidrug-resistant Plasmodium falciparum K1 by SYBR Green-based method. The data set is classed as functional, organism-based.
Data set [3] can be described thus: Clearance in rat hepatocytes assessed per million cells at 1 uM after 5 to 120 mins by LC-MS/MS analysis. The class given is ADME, cell-based, Hepatocyte. Particulars: read-out: CLH.
Data set [4] can be described thus: Protein binding in human plasma. The class given is ADME, cell-free.
The target of the next data set is hERG (KCNH2) (Homo sapiens, UniProt Q12809). Description: Inhibition of human ERG at 11.1 uM.
Data set [5] is described as follows: Octanol-water partition coefficient, log D by shake-flask method. The data set is classed as physicochemical.
Data set [6] can be described thus: Solubility of the compound […]. The data set is classed as physicochemical.
In another data set the test system is Liver microsome. Description: Clearance in human liver microsomes at 1 uM after 2 to 30 mins by LC-MS/MS analysis. The data set is classed as ADME. In general terms: Microsomes from liver hold many membrane-bound enzymes, among them those of drug oxidation.
The subject of a further data set is THP-1. Description: Cytotoxicity against human THP1 cells. The data set is classed as cell-based.
The nature of data set [7]: Selectivity index, ratio of IC50 for human A549 cells to IC50 for Plasmodium falciparum. The settings on record: read-out: Ratio IC50. The class given is toxicity, cell-based.

One may read the pIC50 as −log10 of the IC50, conventionally taken in molar units. A lower pIC50 goes with a high IC50. As a reminder, the fraction unbound is the share of the substance not bound to proteins or other matrix. One may read the inhibition as the change of the read-out against control, counted positive when it falls. What is called logD is lipophilicity at a set pH, counting ionised and neutral species. The low end stands for lower lipophilicity, the high end for higher lipophilicity. Broadly, the solubility is how much of the substance goes into solution per volume.

pIC50: −log10 of the molar value. Converted amounts (≈) assume the structure as drawn.

hERG (KCNH2), sequence (Q12809 whole entry): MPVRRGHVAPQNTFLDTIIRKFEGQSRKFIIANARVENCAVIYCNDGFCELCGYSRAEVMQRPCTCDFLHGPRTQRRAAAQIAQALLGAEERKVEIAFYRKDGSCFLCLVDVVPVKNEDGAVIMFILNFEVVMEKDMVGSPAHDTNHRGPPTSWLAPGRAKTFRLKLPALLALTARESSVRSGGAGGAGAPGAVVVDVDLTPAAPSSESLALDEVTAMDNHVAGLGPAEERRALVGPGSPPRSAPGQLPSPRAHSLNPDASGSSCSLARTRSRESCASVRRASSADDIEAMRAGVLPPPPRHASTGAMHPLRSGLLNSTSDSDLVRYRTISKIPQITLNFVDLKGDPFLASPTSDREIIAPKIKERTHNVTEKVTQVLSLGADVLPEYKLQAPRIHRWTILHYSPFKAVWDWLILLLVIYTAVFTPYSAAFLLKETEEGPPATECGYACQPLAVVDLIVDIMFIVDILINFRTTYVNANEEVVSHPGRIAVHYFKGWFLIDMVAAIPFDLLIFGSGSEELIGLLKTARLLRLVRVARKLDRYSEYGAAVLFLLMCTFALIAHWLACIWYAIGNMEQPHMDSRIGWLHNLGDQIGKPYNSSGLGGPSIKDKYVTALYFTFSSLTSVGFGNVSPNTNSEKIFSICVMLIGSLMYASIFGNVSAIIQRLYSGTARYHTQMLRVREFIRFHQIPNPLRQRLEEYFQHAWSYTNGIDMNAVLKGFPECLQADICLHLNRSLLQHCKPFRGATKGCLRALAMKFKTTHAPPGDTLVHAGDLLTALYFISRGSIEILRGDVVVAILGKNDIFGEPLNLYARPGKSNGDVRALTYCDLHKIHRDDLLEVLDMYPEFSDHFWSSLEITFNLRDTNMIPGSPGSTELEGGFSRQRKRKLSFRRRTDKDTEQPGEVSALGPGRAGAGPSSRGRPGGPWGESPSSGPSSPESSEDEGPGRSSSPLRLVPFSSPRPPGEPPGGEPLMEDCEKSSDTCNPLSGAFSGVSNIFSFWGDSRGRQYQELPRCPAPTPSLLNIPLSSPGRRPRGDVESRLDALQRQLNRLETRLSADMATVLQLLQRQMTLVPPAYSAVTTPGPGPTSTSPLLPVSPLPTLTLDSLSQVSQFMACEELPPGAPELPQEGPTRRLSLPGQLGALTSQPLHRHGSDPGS

`Oc1c(F)cc(Br)cc1CNCC12CC3CC(CC(C3)C1)C2`: the pIC50 in the data set on Plasmodium falciparum [1] was 7.85; in the data set with Plasmodium falciparum [2], > 8.40. Further, the hepatocyte CLint at 1 µM in data set [3] was 162 µL/min/1e6 cells. For the same compound, in [4], the fraction unbound was found to be 0.005. This compound displayed an inhibition at 11.1 µM against hERG (KCNH2) of 9.2%. The compound further displayed a logD in data set [5] of 3.7. The compound also came in with a solubility in [6] of 4 µM (≈ 1.47 µg/mL). In addition, in the data set with Liver microsome, the CLH was 92 µL/min. In addition, the Activity result in the data set with THP-1 is “Non-toxic”. Further, in data set [7], the selectivity ratio is > 3330.
Regarding `O=C(NCC12CC3CC(CC(C3)C1)C2)c1ccccc1O`, the pIC50 with Plasmodium falciparum [1] was < 6.30; in the data set with Plasmodium falciparum [2], 6.39.
The corresponding values for `COc1cccc(F)c1CNCC12CC3CC(CC(C3)C1)C2` are < 5.70 and 5.96.
For `Cc1ccc(O)c(CNCC23CC4CC(CC(C4)C2)C3)c1`, the pIC50 in the data set with Plasmodium falciparum [1] was 7.37; with Plasmodium falciparum [2], 7.82. The hepatocyte CLint at 1 µM in data set [3] stood at 134 µL/min/1e6 cells. Also, the fraction unbound in data set [4] was found to be 0.031. The compound further showed an inhibition at 11.1 µM against hERG (KCNH2) of 28.3%. In data set [5], this compound came in with a logD of 3.3. In data set [6], this compound showed a solubility of 97 µM (≈ 27.7 µg/mL). The compound further gave a CLH with Liver microsome of 93 µL/min. Moreover, in the data set with THP-1, the Activity entry is “Non-toxic”. Also, the selectivity ratio in data set [7] is > 1160.
For `c1ccc(CNCC23CC4CC(CC(C4)C2)C3)cc1`, the pIC50 with Plasmodium falciparum [1] and in the data set with Plasmodium falciparum [2] was < 5.70 each time.
As for `CC(NCC12CC3CC(CC(C3)C1)C2)c1cc(Br)ccc1O` (stereo not drawn), the pIC50 is 7.39 in the data set on Plasmodium falciparum [1] and 7.92 in the data set with Plasmodium falciparum [2]. The Activity entry in the data set on THP-1 is “Non-toxic”. For the same compound, the selectivity ratio in data set [7] was > 1220.
In the case of `Cc1ccc(CNC2C3CC4CC(C3)CC2C4)c(O)c1` (stereo not drawn), the pIC50 in the data set on Plasmodium falciparum [1] is 7.37; in the data set with Plasmodium falciparum [2] it was 7.82.
The corresponding values for `Oc1cccc(F)c1CNCC12CC3CC(CC(C3)C1)C2` are 7.55 and 8.10.
With `CN(Cc1ccccc1O)CC12CC3CC(CC(C3)C1)C2`, the pIC50 in the data set on Plasmodium falciparum [1] was < 6.30; with Plasmodium falciparum [2], 6.57.
For the compound `Cc1ccc(CNCC23CC4CC(CC(C4)C2)C3)c(O)c1`, the values for the pIC50 in the data set on Plasmodium falciparum [1] and in the data set on Plasmodium falciparum [2] were 8.22 and > 8.40, respectively.
Consider `Oc1ccccc1CNCC12CC3CC(CC(C3)C1)C2`, for which the pIC50 is 7.14 in the data set on Plasmodium falciparum [1] and 8.00 with Plasmodium falciparum [2].
Regarding `Cc1ccc(CNCC2CC2)c(O)c1`, the pIC50 in the data set with Plasmodium falciparum [1] is 5.85; in the data set on Plasmodium falciparum [2] it was 6.28.
`Oc1ccc(Br)cc1CNCC12CC3CC(CC(C3)C1)C2`: the pIC50 is 8.15 in the data set on Plasmodium falciparum [1] and > 8.40 with Plasmodium falciparum [2]. Further, the Activity entry with THP-1 is recorded as “Non-toxic”. The selectivity ratio in data set [7] was 4780.
In turn, `C[C@@H]1CC[C@H]2[C@@H](C)C(=O)O[C@@H]3O[C@@]4(C)CC[C@@H]1[C@]32OO4` [ARTEMISININ] gave a pIC50 in the data set with Plasmodium falciparum [1] of 8.15.
On to `Oc1cc(Cl)cc(Cl)c1CNCC12CC3CC(CC(C3)C1)C2`, for which the results for the pIC50 with Plasmodium falciparum [1] and in the data set with Plasmodium falciparum [2] were 8.10 and > 8.40, respectively. Moreover, the Activity result in the data set on THP-1 is listed as “Non-toxic”. Moreover, the selectivity ratio in data set [7] was > 6250.
Regarding `Cc1ccc(O)c(CNCC23CC4CC(CC(C4)C2)C3)n1`, the figures for the pIC50 in the data set with Plasmodium falciparum [1] and in the data set with Plasmodium falciparum [2] were 7.49 and 8.11, respectively. In [3], the hepatocyte CLint at 1 µM is 49 µL/min/1e6 cells. In data set [4], this compound displayed a fraction unbound of 0.122. In addition, testing at 11.1 µM at hERG (KCNH2) gave an inhibition of 7.9%. The compound further showed a logD in [5] of 3. Moreover, the solubility in [6] was 237 µM (≈ 67.9 µg/mL). Besides, in the data set with Liver microsome, the CLH amounted to 13 µL/min. The Activity result with THP-1 is “Non-toxic”. Further, the selectivity ratio in data set [7] is > 1560.
Take `COc1ccc(CNCC23CC4CC(CC(C4)C2)C3)c(O)c1`: the pIC50 with Plasmodium falciparum [1] was 7.66; in the data set on Plasmodium falciparum [2], 8.22. Besides, in data set [3], the hepatocyte CLint at 1 µM came out at 391 µL/min/1e6 cells. In [4], this compound displayed a fraction unbound of 0.044. Moreover, at hERG (KCNH2), at 11.1 µM the inhibition was 46.2%. In [5], this compound yielded a logD of 2.7. The compound also showed a solubility in data set [6] of 446 µM (≈ 134 µg/mL). In the data set with Liver microsome, this compound returned a CLH of 59 µL/min.
On to `Cc1ccc(CNC2CCCCC2)c(O)c1`, for which the pIC50 with Plasmodium falciparum [1] was 6.14; with Plasmodium falciparum [2], 6.89.
As to `CCNCc1ccc(C)cc1O`, the pIC50 in the data set on Plasmodium falciparum [1] and in the data set on Plasmodium falciparum [2] was < 5.70 in each case.
As to `Oc1ccc(Cl)cc1CNCC12CC3CC(CC(C3)C1)C2`, the pIC50 in the data set on Plasmodium falciparum [1] is 8.30; in the data set on Plasmodium falciparum [2] it was > 8.40. In [3], the hepatocyte CLint at 1 µM was determined as 208 µL/min/1e6 cells. In data set [4], this compound gave an unbound share (fraction unbound) of 0.004. Also, at hERG (KCNH2), testing at 11.1 µM gave an inhibition of 26.8%. In [5], this compound displayed a logD of 4. The compound further showed a solubility in data set [6] of 43 µM (≈ 13.2 µg/mL). Moreover, in the data set with Liver microsome, the CLH turned out to be 80 µL/min. Besides, in the data set on THP-1, the Activity entry is “Non-toxic”. Further, the selectivity ratio in data set [7] stood at 5290.
On to `O=C1C(O)=C([C@H]2CC[C@H](c3ccc(Cl)cc3)CC2)C(=O)c2ccccc21` [ATOVAQUONE], for which the pIC50 in the data set with Plasmodium falciparum [2] is 8.64.
As for `Oc1ccc(C(F)(F)F)cc1CNCC12CC3CC(CC(C3)C1)C2`, the pIC50 in the data set on Plasmodium falciparum [1] was 7.00; in the data set with Plasmodium falciparum [2] it was 7.92. Also, the Activity entry in the data set on THP-1 is recorded as “Non-toxic”. In addition, the selectivity ratio in [7] is > 500.

The record behind these values is ChEMBL document CHEMBL3392977, “Synthesis and biological evaluation of adamantane-based aminophenols as a novel class of antiplasmodial agents” (Bioorg Med Chem Lett, 2015).
